These results are taken from patent US20240368127A1, “HSD17B13 INHIBITORS AND USES THEREOF” (FL2022-001, Inc., priority 2021, published 2024).

pIC50: −log10 of the molar value.

This assay has as its target T1, Recombinant human HSD17B13 enzyme (Homo sapiens, UniProt Q7Z5P4).
T1 sequence (Q7Z5P4 20-300): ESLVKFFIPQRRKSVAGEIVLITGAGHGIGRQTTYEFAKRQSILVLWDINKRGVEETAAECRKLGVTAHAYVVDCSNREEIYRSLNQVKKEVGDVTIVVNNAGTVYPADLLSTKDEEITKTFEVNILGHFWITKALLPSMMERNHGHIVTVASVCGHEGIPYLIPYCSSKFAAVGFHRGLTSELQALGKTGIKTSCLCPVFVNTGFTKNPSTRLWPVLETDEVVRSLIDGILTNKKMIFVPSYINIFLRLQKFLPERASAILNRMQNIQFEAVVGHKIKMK
The assay is described as follows: HSD17b13 NAD(P)H-Glo biochemical assay. The note with it: 50 μM estradiol, 1 mM NAD+, 37° C. for 3 hours; read-out: HSD17β13 IC50. As to the method:
Example B-1: HSD17b13 NAD (P) H-Glo Biochemical Assay
Recombinant human HSD17B13 enzyme. Substrate: estradiol (Sigma β-Estradiol E8875), 100 mM in DMSO. Cofactor: NAD+ Grade I free acid (Sigma 10127965001), 20 mM in H2O. Assay buffer final concentration: 20 mM Tris pH7.4 with 0.002% Tween-20 and 0.02% BSA. Assay performed in 384 well solid bottom plate (Corning 3570). Enzymatic activity detected by NAD (P) H-Glo™ Detection System (Promega G9062).
Inhibitor compounds were serially diluted in DMSO and then further diluted in assay buffer to a 10× concentration consisting of 1% DMSO.
HSD17b13 enzyme was diluted in 1× assay buffer to the desired enzyme concentration based on the specific activity of the enzyme lot. 20 μL of diluted enzyme was added to each well along with 2.5 μL of 10× inhibitor solution. Assay plate was incubated at RT for 20 minutes, and then 2.5 μL of a 10× substrate/cofactor mix was added to each well for a final concentration of 50 μM estradiol and 1 mM NAD+. Assay plate was incubated at 37° C. for 3 hours. NAD (P) H-Glo™ Detection System reagents were prepared according to manufacturer's specifications, and 25 μL was added to each well. After incubating for 1 hour at RT, luminescence was measured.
As for `Cn1nc(-c2cc(C(F)(F)F)c(F)c(O)c2F)c2cnc(N3CCN(S(C)(=O)=O)C[C@@H]3CC3CCCCC3)nc21` (single isomer, unassigned) [Compound 15.01], the pIC50 (as a rule, the negative decadic logarithm of the IC50, by convention in mol/L) is ≥ 7.00. The same measure for `Cn1nc(-c2cc(C(F)(F)F)c(F)c(O)c2F)c2cnc(N3CCOC[C@H]3CC3CCCCC3)nc21` (single isomer, unassigned) [Compound 15.04]: ≥ 7.00. On to `Cn1nc(-c2cc(C(F)(F)F)c(F)c(O)c2F)c2cnc(N3CC[C@H]3Cc3ccccc3)nc21` (single isomer, unassigned) [Compound 15.10], for which the pIC50 is ≥ 7.00. The figure for `CS(=O)(=O)N1CCN(c2ccc(-n3nnc4cc(F)c(O)c(F)c43)cc2)[C@H](Cc2ccccc2)C1` [Compound 1, (R)-1-(4-(2-Benzyl-4-(methylsulfonyl)piperazin-1-yl)phenyl)-5,7-difluoro-1H-benzo[d][1,2,3]triazol-6-ol] is ≥ 7.00; for `CS(=O)(=O)N1CCN(c2ccc(-n3nnc4cc(F)c(O)c(F)c43)cc2)[C@@H](Cc2ccccc2)C1` [Compound 1.01, (S)-1-(4-(2-Benzyl-4-(methylsulfonyl)piperazin-1-yl)phenyl)-5,7-difluoro-1H-benzo[d][1,2,3]triazol-6-ol] it is 6.00 to 7.00; for `CS(=O)(=O)N1CCN(c2ccc(-n3nnc4cc(F)c(O)c(F)c43)cc2)C[C@@H]1Cc1ccccc1` [Compound 1.02, (S)-1-(4-(3-Benzyl-4-(methylsulfonyl)piperazin-1-yl)phenyl)-5,7-difluoro-1H-benzo[d][1,2,3]triazol-6-ol] it is ≥ 7.00. The figure for `CS(=O)(=O)N1CCN(c2ccc(-n3nnc4cc(F)c(O)c(F)c43)cc2)C[C@H]1Cc1ccccc1` [Compound 1.03, (R)-1-(4-(3-Benzyl-4-(methylsulfonyl)piperazin-1-yl)phenyl)-5,7-difluoro-1H-benzo[d][1,2,3]triazol-6-ol] is ≥ 7.00; for `Oc1c(F)cc2nnn(-c3ccc(N4CCO[C@@H](Cc5ccccc5)C4)cc3)c2c1F` [Compound 1.04, (S)-1-(4-(2-Benzylmorpholino)phenyl)-5,7-difluoro-1H-benzo[d][1,2,3]triazol-6-ol] it is 6.00 to 7.00; for `Oc1c(F)cc2nnn(-c3ccc(N4CCOC[C@H]4Cc4ccccc4)cc3)c2c1F` [Compound 1.05, (R)-1-(4-(3-Benzylmorpholino)phenyl)-5,7-difluoro-1H-benzo[d][1,2,3]triazol-6-ol] it is 6.00 to 7.00. The same measure for `Oc1c(F)cc2nnn(-c3ccc(N4CC[C@@H](Cc5ccccc5)C4)cc3)c2c1F` [Compound 1.06, (R)-1-(4-(3-Benzylpyrrolidin-1-yl)phenyl)-5,7-difluoro-1H-benzo[d][1,2,3]triazol-6-ol]: ≥ 7.00; for `Oc1c(F)cc2nnn(-c3ccc(N4CC[C@H](Cc5ccccc5)C4)cc3)c2c1F` [Compound 1.07, (S)-1-(4-(3-Benzylpyrrolidin-1-yl)phenyl)-5,7-difluoro-1H-benzo[d][1,2,3]triazol-6-ol]: ≥ 7.00; for `Oc1c(F)cc2nnn(-c3ccc(N4CCC(Cc5ccccc5)CC4)cc3)c2c1F` [Compound 1.08, 1-(4-(4-Benzylpiperidin-1-yl)phenyl)-5,7-difluoro-1H-benzo[d][1,2,3]triazol-6-ol]: ≥ 7.00. As for `Oc1c(F)cc2nnn(-c3ccc(N4CCCC(Cc5ccccc5)CC4)cc3)c2c1F` (stereo not shown) [Compound 1.09, 1-(4-(4-Benzylazepan-1-yl)phenyl)-5,7-difluoro-1H-benzo[d][1,2,3]triazol-6-ol], the pIC50 is ≥ 7.00. The figure for `CC1(Cc2ccccc2)CCN(c2ccc(-n3nnc4cc(F)c(O)c(F)c43)cc2)CC1` [Compound 1.10, 1-(4-(4-Benzyl-4-methylpiperidin-1-yl)phenyl)-5,7-difluoro-1H-benzo[d][1,2,3]triazol-6-ol] is ≥ 7.00; for `Cc1nn(-c2cc(C(F)(F)F)c(F)c(O)c2F)c2cnc(N3CCN(S(C)(=O)=O)C[C@H]3Cc3ccccc3)nc12` [Compound 2, (R)-3-(5-(2-Benzyl-4-(methylsulfonyl)piperazin-1-yl)-3-methyl-1H-pyrazolo[4,3-d]pyrimidin-1-yl)-2,6-difluoro-5-(trifluoromethyl)phenol] it is ≥ 7.00.

For the molecule `Cc1nn(-c2cc(C(F)(F)F)c(F)c(O)c2F)c2cnc(N3CCOCC3Cc3ccccc3)cc12` (stereo not shown) [Compound 2.01, 3-(5-(3-Benzylmorpholino)-3-methyl-1H-pyrazolo[3,4-c]pyridin-1-yl)-2,6-difluoro-5-(trifluoromethyl)phenol], the pIC50 was ≥ 7.00. The same measure for `Cc1nn(-c2cc(C(F)(F)F)c(F)c(O)c2F)c2cnc(N3CCN(S(C)(=O)=O)C[C@H]3Cc3ccccc3)cc12` [Compound 2.02, (R)-3-(5-(2-Benzyl-4-(methylsulfonyl)piperazin-1-yl)-3-methyl-1H-pyrazolo[3,4-c]pyridin-1-yl)-2,6-difluoro-5-(trifluoromethyl)phenol]: ≥ 7.00. The figure for `Cc1nn(-c2cc(C(F)(F)F)c(F)c(O)c2F)c2cnc(N3CCN(S(C)(=O)=O)C[C@@H]3Cc3ccccc3)cc12` [Compound 2.03, (S)-3-(5-(2-Benzyl-4-(methylsulfonyl)piperazin-1-yl)-3-methyl-1H-pyrazolo[3,4-c]pyridin-1-yl)-2,6-difluoro-5-(trifluoromethyl)phenol] is 6.00 to 7.00; for `Cc1nn(-c2cc(C(F)(F)F)c(F)c(O)c2F)c2cnc(N3CCOC(Cc4ccccc4)C3)cc12` (stereo not shown) [Compound 2.04, 3-(5-(2-Benzylmorpholino)-3-methyl-1H-pyrazolo[3,4-c]pyridin-1-yl)-2,6-difluoro-5-(trifluoromethyl)phenol] it is ≥ 7.00. The figure for `Cc1nn(-c2cc(C(F)(F)F)cc(O)c2F)c2cnc(N3CCOC(Cc4ccccc4)C3)cc12` (stereo not shown) [Compound 2.05, 3-(5-(2-Benzylmorpholino)-3-methyl-1H-pyrazolo[3,4-c]pyridin-1-yl)-2-fluoro-5-(trifluoromethyl)phenol] is 6.00 to 7.00; for `CS(=O)(=O)N1CCN(c2ccc3c(c2)c(Cl)nn3-c2cc(C(F)(F)F)c(F)c(O)c2F)[C@H](Cc2ccccc2)C1` [Compound 2.06, (R)-3-(5-(2-Benzyl-4-(methylsulfonyl)piperazin-1-yl)-3-chloro-1H-indazol-1-yl)-2,6-difluoro-5-(trifluoromethyl)phenol] it is ≥ 7.00; for `Cc1nn(-c2cc(C(F)(F)F)c(F)c(O)c2F)c2cnc(N3CCN(S(C)(=O)=O)[C@H](Cc4ccccc4)C3)cc12` [Compound 2.07, (R)-3-(5-(3-Benzyl-4-(methylsulfonyl)piperazin-1-yl)-3-methyl-1H-pyrazolo[3,4-c]pyridin-1-yl)-2,6-difluoro-5-(trifluoromethyl)phenol] it is ≥ 7.00. As for `CC(=O)c1nn(-c2cc(C(F)(F)F)c(F)c(O)c2F)c2ccc(N3CCN(S(C)(=O)=O)C[C@H]3Cc3ccccc3)cc12` [Compound 2.08], the pIC50 is ≥ 7.00. The figure for `CS(=O)(=O)N1CCN(c2ncc3c(cnn3-c3cc(C(F)(F)F)c(F)c(O)c3F)n2)[C@H](Cc2ccccc2)C1` [Compound 2.09, (R)-3-(5-(2-Benzyl-4-(methylsulfonyl)piperazin-1-yl)-1H-pyrazolo[4,3-d]pyrimidin-1-yl)-2,6-difluoro-5-(trifluoromethyl)phenol] is ≥ 7.00. The same measure for `Cc1nn(-c2cc(C(F)(F)F)c(F)c(O)c2F)c2cnc(N3CCN(S(C)(=O)=O)[C@@H](Cc4ccccc4)C3)cc12` [Compound 2.10, (S)-3-(5-(3-Benzyl-4-(methylsulfonyl)piperazin-1-yl)-3-methyl-1H-pyrazolo[3,4-c]pyridin-1-yl)-2,6-difluoro-5-(trifluoromethyl)phenol]: ≥ 7.00; for `Cc1nn(-c2cc(C(F)(F)F)c(Cl)c(O)c2F)c2cnc(N3CCN(S(C)(=O)=O)C[C@H]3Cc3ccccc3)cc12` [Compound 2.11, (R)-3-(5-(2-Benzyl-4-(methylsulfonyl)piperazin-1-yl)-3-methyl-1H-pyrazolo[3,4-c]pyridin-1-yl)-6-chloro-2-fluoro-5-(trifluoromethyl)phenol]: ≥ 7.00.

`CS(=O)(=O)N1CCN(c2ccc3c(c2)c(N)nn3-c2cc(C(F)(F)F)c(F)c(O)c2F)[C@H](Cc2ccccc2)C1` [Compound 2.12, (R)-3-(3-Amino-5-(2-benzyl-4-(methylsulfonyl)piperazin-1-yl)-1H-indazol-1-yl)-2,6-difluoro-5-(trifluoromethyl)phenol]: the pIC50 was ≥ 7.00. The same measure for `Cc1nn(-c2cc(C(F)(F)F)c(F)c(O)c2F)c2ccc(N3CCN(S(C)(=O)=O)C[C@H]3Cc3ccccc3)cc12` [Compound 2.13, (R)-3-(5-(2-Benzyl-4-(methylsulfonyl)piperazin-1-yl)-3-methyl-1H-indazol-1-yl)-2,6-difluoro-5-(trifluoromethyl)phenol]: ≥ 7.00.
